Columns and labels:
Hippocampal Cultures = experiment: Neuroprotection from hydrogen peroxide (oxidative stress), CFDA assay; assay type: cell-based; details: Rattus norvegicus; 10 μM hydrogen peroxide, hippocampal cultures, 4 hour test period; read-out: NP from Hydrogen Peroxide CFDA EC50
Excerpt: Cell cultures: All compounds are screened with dissociated hippocampal cultures derived from embryonic day 18 rats as the primary test system. With this preparation, primary neurons are used to test for toxicity as well as neuroprotection in a highly relevant experimental system to epilepsy. In brief, hippocampal tissue are obtained commercially through Brain Bits (Springfield, Ill.) and cultures prepared as previously described by Brewer (Brewer, G. J. Serum-free B27/neurobasal medium supports differentiated growth of neurons from the striatum, substantia nigra, septum, cerebral cortex, cerebellum and dentate gyms, J. Neurosci. Res. 1995, 42, 674-683). The hippocampal neurons are platted at low density (10,000 cell/well) in a 96-well format and maintained in serum-free medium consisting of Neurobasal Medium supplemented with B27 and GlutaMAX (Gibco). Pre-coated poly-L-lysine coated plates are used because of the preferential adherence and survival of hippocampal neurons on this matrix support.
Potent neuroprotection is the distinguishing characteristic that separates this program's anticonvulsants from all other commercial drugs for epilepsy. The experimental details and the rationale for the implemented assays are essential in differentiating these compounds from that of others. The central objective of all neuroprotective assays was their relevancy to excitotoxicity and oxidative stress related to epilepsy. Both the amount of glutamate and hydrogen peroxide used in the assays, as well as the time of treatment and duration of the experiment, were designed to be relevant to epilepsy. Further, all time parameters employed in these studies were empirically determined to be within the limits of reversible toxic events, yet using amounts of glutamate and hydrogen peroxide that were relevant to the disease. In regard to glutamate toxicity, a critical feature was the duration of treatment of the hippocampal neurons. The rational for using a short 5 min treatment with glutamate was based on the observation of Randall and Thayer (Randall, R. D.; Thayer, S. A. Glutamate-induced calcium transient triggers calcium overload and neurotoxicity in rat hippocampal neurons, J. Neurosci. 1992, 12, 1882-1895). […] The rationale is that this intense burst of glutamate and resulting calcium overload is relevant to seizures and therefore was important data to capture in the screening assay. The amount of glutamate (30 μM) employed in our screening was based on the basal levels of glutamate observed in microdialysis measurements of hippocampus from epileptogenic patients (Cavus et al. Decreased hippocampal volume on MRI is associated with increased extracellular glutamate in epilepsy patients, Epilepsia, 2008, 49, 1358-1366). In regard to hydrogen peroxide, the amount employed (10 μM) was detected in the hippocampus of rats after kainate-induced status epilepticus (Jarrett et. al., Mitochondrial DNA damage and impaired base excision repair during epileptogenesis, Neurobiol. Dis. 2008, 30, 130-138). To produce neural damage and death with these amounts of glutamate and hydrogen peroxide, the cultures were changed to a medium with significant depletion of antioxidant components in the defined medium supplement B-27 just prior to treatment with the compounds. This was performed to obtain a significant and reproducible toxic signal in the hippocampal neurons and because loss of antioxidant control may be a component of epileptogenesis (Waldbaum and Patel, Mitochondria, oxidative stress and temporal lobe epilepsy, Epilepsy Res. 2010 88, 23-45; Wu et al., Mitochondrial DNA mutation-elicited oxidative stress, oxidative damage, and altered gene expression in cultured cells of patients with MERRF syndrome, Mol. Neurobiol. 2010, 41, 256-266). Neuroprotection studies with hydrogen peroxide were conducted with cultures that were between day 12 and day 18. Studies of neuroprotection glutamate were conducted between day 19 and day 22. […]

hippocampal neurons = experiment: Prevention of reactive oxygen species accumulation from hydrogen peroxide (CDFFDA dye); assay type: cell-based; details: Rattus norvegicus, Hippocampal neuron; hydrogen peroxide for three hours, day 18 hippocampal cultures; read-out: Potency of Reduction in Oxidized CDFFDA (ROS) EC50
Excerpt: Cell cultures: all compounds were screened with dissociated hippocampal cultures derived from embryonic day 18 rats as the primary test system. With this preparation, primary neurons were used to test for prevention of reactive oxygen species accumulation in response to hydrogen peroxide. In brief, hippocampal tissue was obtained commercially through Brain Bits (Springfield, Ill.) and cultures prepared as previously described (Brewer, G. J. Serum-free B27/neurobasal medium supports differentiated growth of neurons from the striatum, substantia nigra, septum, cerebral cortex, cerebellum and dentate gyms. J. Neurosci. Res. 1995, 42, 674-683). […]
Hydrogen peroxide and glutamate generate reactive oxygen species (ROS) such as superoxide anions, hydrogen peroxide and hydroxyl radicals which can reactively damage cellular components including DNA, lipids and proteins (Anderson et al. (2001). Green tea catechins partially protect DNA from OH radical-induced strand breaks and base damage through fast chemical repair of DNA radicals. Carcinogenesis 2001, 22:1189-1193). […] The cultures were then treated with 30 nM hydrogen peroxide for three hours and the fluorescence measured at Ex/Em 485/508. Background fluorescence was subtracted from values obtained from wells without cells.

Row | EC50 (Hippocampal Cultures) [nM] | EC50 (hippocampal neurons) [nM] | Structure (SMILES)
1 | 1 | 0.03 | NS(=O)(=O)NCC(F)(F)c1ccccc1F [Example 1, 2,2-Difluoro-2-(2-fluorophenyl)-ethyl-1-sulfamide]
2 | 0.1 | 0.01 | NS(=O)(=O)NCC(F)(F)c1ccccc1Cl [Example 2, 2,2-Difluoro-2-(2-chlorophenyl)-ethyl-1-sulfamide]
